Usually IC50 stands for the midpoint of a concentration-inhibition curve. One may read the Kd as a measure of binding affinity in units of concentration. As usually defined, the EC50 is the midpoint of the concentration-response curve. The half-life is how long it takes for the measured level to halve. A word on the inhibition in vivo: it is the percentage by which the read-out fell short of the control. As a reminder, the ED50 is the dose at which the effect has come halfway, by size or by number of responders.

The structures appear in SMILES notation.

For one series, the target named is Phosphodiesterase 3 (Homo sapiens, UniProt Q14432+Q13370). Briefly: Inhibition of human recombinant PDE3 expressed in Escherichia coli.
Series [1] concerns the target T1, cGMP-inhibited 3',5'-cyclic phosphodiesterase 3A (Homo sapiens, UniProt Q14432). Briefly: Inhibition of PDE3A (unknown origin).
Series [2] has as its target T2, cGMP-inhibited 3',5'-cyclic phosphodiesterase 3B (Homo sapiens, UniProt Q13370). Briefly: Inhibition of PDE3B (unknown origin).
For series [3], the target named is T1, cGMP-inhibited 3',5'-cyclic phosphodiesterase 3A. Briefly: Binding affinity to PDE3A (unknown origin) assessed as dissociation constant.
Series [4] concerns the target T3, Ribonuclease SLFN12 (Homo sapiens, UniProt Q8IYM2). Briefly: Binding affinity to SLFN12 (unknown origin) assessed as dissociation constant.
Series [5] has as its target T2, cGMP-inhibited 3',5'-cyclic phosphodiesterase 3B. Briefly: Binding affinity to human recombinant PDE3B expressed as Escherichia coli assessed as dissociation constant.
The target in series [6] is T3, Ribonuclease SLFN12. Briefly: Binding affinity to human recombinant SLFN12 expressed as Escherichia coli assessed as dissociation constant.
In series [7] the test system is HeLa. Briefly: Cytotoxicity against human HeLa cells assessed as reduction in cell viability after 72 hrs by MTT assay. Type of series: functional, cell-based.
The nature of series [8]: Antiplatelet activity against ADP-induced Wistar rat platelet aggregation assessed as inhibition of platelet aggregation. In kind it is functional, cell-based.
The nature of series [9]: Antiplatelet aggregation activity in rabbit platelet-rich plasma assessed as reduction in ADP-induced aggregation incubated for 5 mins by aggregometry. Type of series: functional, cell-based. As to conditions: Oryctolagus cuniculus.
Series [10] is described as follows: Half life in Wistar rat at 0.29 to 4.86 mg/kg, po. Type of series: ADME, organism-based. As to conditions: in vivo, dose 0.29-4.86 mg/kg.
Series [11] can be described thus: Half life in Beagle dog at 0.29 to 4.86 mg/kg, po. In kind it is ADME, organism-based, Canis lupus familiaris. The settings on record: in vivo, dose 0.29-4.86 mg/kg.
Series [12] can be described thus: Inhibition of Rhesus monkey blood platelet aggregation at 4 mg/kg, po. In kind it is functional. The settings on record: Macaca mulatta.
Series [13] is described as follows: Inhibition of rhesus monkey blood platelet aggregation at 1 mg/kg, po. The settings on record: Macaca mulatta. In kind it is functional.
A further series has as its system Oryctolagus cuniculus. Briefly: Antithrombotic activity in New Zealand White biolaser-induced oral dosed rabbit model assessed as reduction in thrombus mass. Type of series: functional.
The nature of series [14]: Antiplatelet aggregation activity in rabbit platelet rich plasma assessed as reduction in ADP-induced platelet aggregation. In kind it is functional, cell-based. The settings on record: Oryctolagus cuniculus.
The nature of series [15]: Antiplatelet activity in rabbit platelet rich plasma assessed as inhibition of collagen-induced platelet aggregation. Type of series: functional, cell-based. The settings on record: Oryctolagus cuniculus.
A short description of series [16]: Antiplatelet activity in rabbit platelet rich plasma assessed as inhibition of thrombin-induced platelet aggregation. In kind it is functional, cell-based. As to conditions: Oryctolagus cuniculus.
The nature of series [17]: Antiplatelet activity in rabbit platelet rich plasma assessed as inhibition of arachidonic acid-induced platelet aggregation. Type of series: functional, cell-based. The settings on record: Oryctolagus cuniculus.
Series [18] can be described thus: Antiplatelet activity in rabbit platelet rich plasma assessed as inhibition of antigen-antibody-induced platelet aggregation. Type of series: functional, cell-based. The settings on record: Oryctolagus cuniculus.
Series [19] is described as follows: Antiplatelet aggregation activity in Sprague-Dawley rat platelet rich plasma assessed as reduction in ADP-induced platelet aggregation. In kind it is functional, cell-based.
A short description of series [20]: Antiplatelet aggregation activity in Sprague-Dawley rat platelet rich plasma assessed as reduction in collagen-induced platelet aggregation. Type of series: functional, cell-based.
Series [21] can be described thus: Antiplatelet aggregation activity in rhesus monkey platelet rich plasma assessed as reduction in ADP-induced platelet aggregation. Type of series: functional, cell-based. As to conditions: Macaca mulatta.
A short description of series [22]: Antiplatelet aggregation activity in rhesus monkey platelet rich plasma assessed as reduction in collagen-induced platelet aggregation. The settings on record: Macaca mulatta. Type of series: functional, cell-based.
A short description of series [23]: Antiplatelet aggregation activity in dog rich plasma assessed as reduction in ADP-induced platelet aggregation. Type of series: functional, cell-based. As to conditions: Canis lupus familiaris.
Series [24] in a line: Antiplatelet aggregation activity in human rich plasma assessed as reduction in ADP-induced platelet aggregation. Type of series: functional, cell-based.
A short description of series [25]: Antiplatelet aggregation activity in human rich plasma assessed as reduction in collagen-induced platelet aggregation. In kind it is functional, cell-based.
Series [26] deals with HeLa. Briefly: Antiproliferative activity against human HeLa cells assessed as reduction in cell viability measured after 72 hrs by MTT assay. In kind it is functional, cell-based. Background: Formazan colour is commonly taken as a measure of viable cells.
The subject of series [27] is HeLa. Briefly: Antiproliferative activity against human HeLa cells assessed as reduction in cell growth. Type of series: functional, cell-based.
Series [28] is described as follows: Antiproliferative activity against human QGY-7701 cells assessed as reduction in cell viability measured after 72 hrs by MTT assay. In kind it is functional, cell-based. The settings on record: QGY7701, 72 h.

T1 sequence (Q14432 whole entry): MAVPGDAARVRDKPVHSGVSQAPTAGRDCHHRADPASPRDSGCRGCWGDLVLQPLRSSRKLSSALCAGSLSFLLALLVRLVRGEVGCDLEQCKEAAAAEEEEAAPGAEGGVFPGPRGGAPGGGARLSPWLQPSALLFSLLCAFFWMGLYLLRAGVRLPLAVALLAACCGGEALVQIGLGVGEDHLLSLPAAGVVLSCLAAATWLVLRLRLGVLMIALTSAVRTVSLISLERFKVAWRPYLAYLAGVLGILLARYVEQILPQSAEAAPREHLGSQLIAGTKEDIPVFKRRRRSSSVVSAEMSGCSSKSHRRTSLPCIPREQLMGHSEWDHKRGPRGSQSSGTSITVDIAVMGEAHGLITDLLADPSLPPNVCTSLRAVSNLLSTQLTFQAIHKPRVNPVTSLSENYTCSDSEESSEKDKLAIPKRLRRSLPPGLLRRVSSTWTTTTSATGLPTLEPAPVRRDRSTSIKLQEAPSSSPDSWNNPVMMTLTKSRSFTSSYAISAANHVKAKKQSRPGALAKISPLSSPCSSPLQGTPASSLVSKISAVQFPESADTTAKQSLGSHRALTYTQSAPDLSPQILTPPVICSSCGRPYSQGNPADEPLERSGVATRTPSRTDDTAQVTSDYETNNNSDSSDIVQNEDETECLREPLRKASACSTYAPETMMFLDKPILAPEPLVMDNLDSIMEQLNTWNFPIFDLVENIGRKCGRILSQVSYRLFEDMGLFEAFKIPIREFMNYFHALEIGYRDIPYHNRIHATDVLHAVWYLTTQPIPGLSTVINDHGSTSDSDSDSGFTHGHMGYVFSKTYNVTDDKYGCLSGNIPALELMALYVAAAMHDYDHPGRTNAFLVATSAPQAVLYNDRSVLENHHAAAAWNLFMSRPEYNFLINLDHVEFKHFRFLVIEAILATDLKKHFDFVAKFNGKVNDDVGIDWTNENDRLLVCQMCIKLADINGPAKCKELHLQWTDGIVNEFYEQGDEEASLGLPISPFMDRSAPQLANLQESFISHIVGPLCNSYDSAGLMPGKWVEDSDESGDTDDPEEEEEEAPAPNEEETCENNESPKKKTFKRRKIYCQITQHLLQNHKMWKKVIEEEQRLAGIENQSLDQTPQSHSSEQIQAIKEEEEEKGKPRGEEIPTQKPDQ
T2 sequence (Q13370 whole entry): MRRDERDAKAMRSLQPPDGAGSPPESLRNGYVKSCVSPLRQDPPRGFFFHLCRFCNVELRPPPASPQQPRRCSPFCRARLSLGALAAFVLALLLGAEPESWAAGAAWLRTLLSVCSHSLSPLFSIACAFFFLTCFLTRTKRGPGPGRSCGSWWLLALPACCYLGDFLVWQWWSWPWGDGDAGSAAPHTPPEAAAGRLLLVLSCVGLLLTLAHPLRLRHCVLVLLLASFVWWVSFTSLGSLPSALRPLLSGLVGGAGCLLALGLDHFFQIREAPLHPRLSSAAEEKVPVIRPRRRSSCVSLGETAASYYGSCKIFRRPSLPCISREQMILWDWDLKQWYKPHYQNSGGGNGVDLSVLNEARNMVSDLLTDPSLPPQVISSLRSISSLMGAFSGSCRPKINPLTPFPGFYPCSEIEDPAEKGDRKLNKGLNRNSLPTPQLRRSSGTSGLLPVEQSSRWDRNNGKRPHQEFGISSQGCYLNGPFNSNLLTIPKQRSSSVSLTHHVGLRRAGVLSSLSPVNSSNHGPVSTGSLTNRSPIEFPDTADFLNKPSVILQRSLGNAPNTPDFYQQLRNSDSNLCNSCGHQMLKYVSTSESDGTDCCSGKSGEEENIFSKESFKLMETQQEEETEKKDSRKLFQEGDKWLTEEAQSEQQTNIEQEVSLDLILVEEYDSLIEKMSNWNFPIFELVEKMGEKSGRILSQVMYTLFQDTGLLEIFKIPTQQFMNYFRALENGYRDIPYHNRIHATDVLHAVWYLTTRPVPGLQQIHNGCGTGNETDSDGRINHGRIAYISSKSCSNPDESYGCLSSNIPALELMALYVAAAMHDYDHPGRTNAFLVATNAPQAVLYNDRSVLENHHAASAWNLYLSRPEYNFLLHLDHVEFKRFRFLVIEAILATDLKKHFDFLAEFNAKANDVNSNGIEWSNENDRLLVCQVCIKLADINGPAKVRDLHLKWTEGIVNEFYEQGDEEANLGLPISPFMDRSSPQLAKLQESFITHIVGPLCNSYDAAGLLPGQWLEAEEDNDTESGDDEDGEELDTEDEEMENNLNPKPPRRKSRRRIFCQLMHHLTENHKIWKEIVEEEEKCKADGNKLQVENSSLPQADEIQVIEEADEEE
T3 sequence (Q8IYM2 whole entry): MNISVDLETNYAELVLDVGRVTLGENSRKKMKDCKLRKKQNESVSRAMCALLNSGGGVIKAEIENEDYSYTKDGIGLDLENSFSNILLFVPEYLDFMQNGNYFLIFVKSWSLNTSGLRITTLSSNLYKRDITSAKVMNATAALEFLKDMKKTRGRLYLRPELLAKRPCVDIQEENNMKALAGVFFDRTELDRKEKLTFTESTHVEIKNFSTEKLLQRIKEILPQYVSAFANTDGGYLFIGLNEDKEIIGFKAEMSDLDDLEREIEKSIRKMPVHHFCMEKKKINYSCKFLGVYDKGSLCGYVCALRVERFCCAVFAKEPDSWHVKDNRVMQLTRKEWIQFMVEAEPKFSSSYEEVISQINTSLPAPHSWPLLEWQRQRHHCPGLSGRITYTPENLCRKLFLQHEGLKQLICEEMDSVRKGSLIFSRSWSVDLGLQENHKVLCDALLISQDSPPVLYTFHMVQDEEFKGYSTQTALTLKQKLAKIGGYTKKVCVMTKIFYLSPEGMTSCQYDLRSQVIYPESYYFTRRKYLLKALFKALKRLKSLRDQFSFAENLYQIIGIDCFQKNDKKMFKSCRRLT

Turning to `CC1CC(=O)NN=C1c1ccc2c(c1)CCC(=O)N2C` (stereo unspecified), the IC50 on Phosphodiesterase 3 is recorded as 90 nM.
As to `CCN(CC)c1ccc(C2=NNC(=O)C[C@H]2C)cc1[N+](=O)[O-]`, the IC50 in [1] worked out at 25 nM; in series [2] it was 100 nM. The equilibrium dissociation constant (Kd) came out at 40 nM in [3], 870 nM at Ribonuclease SLFN12 [4], 320 nM in series [5] and 65 nM at Ribonuclease SLFN12 [6].
`O=C1CN2Cc3c(ccc(-c4ccc(Cl)cc4)c3Cl)N=C2N1`: the EC50 in the series with HeLa [7] worked out at 1.8 nM.
In the case of `O=C1CN2Cc3c(ccc(Br)c3Cl)N=C2N1`, the EC50 in the series with HeLa [7] amounted to 2.53 nM.
On the same count and under the same terms, the figure for `O=C1CN2Cc3c(ccc(-c4ccoc4)c3Cl)N=C2N1` is 0.6 nM; for `C[C@@H]1OC(=O)NN=C1c1ccc(-c2ccc(F)cc2)c(C(F)(F)F)c1` it is 1.3 nM.
As for `Cc1ccccc1-c1ccc2c(c1Cl)CN1CC(=O)NC1=N2`, the EC50 in the series with HeLa [7] amounted to 1.09 nM.
Still for that read-out and setting: the figure for `Cc1cccc(-c2ccc3c(c2Cl)CN2CC(=O)NC2=N3)c1` is 1.37 nM; for `O=C1CN2Cc3c(Cl)cccc3N=C2N1` it is 42.9 nM.
In the case of `CCc1ccc(-c2ccc3c(c2Cl)CN2CC(=O)NC2=N3)cc1`, in the series with HeLa [7], the 50% effective concentration (EC50) stood at 1.8 nM.
Take `N#Cc1ccc(-c2ccc3c(c2Cl)CN2CC(=O)NC2=N3)cc1`: in the series with HeLa [7], the EC50 worked out at 2.38 nM.
For the compound `O=C1NC2=Nc3ccc(Cl)c(Cl)c3CN2C1O` (stereo unspecified), the half-maximal inhibitory concentration (IC50) on Phosphodiesterase 3 was found to be 32 nM. The half-maximal effective concentration (EC50) in series [8] amounted to 48 nM.
With `O=C1CN2Cc3c(ccc(F)c3Cl)N=C2N1`, in the series on HeLa [7], the concentration for a half-maximal effect (EC50) stood at 34.2 nM.
The same measure, in the same setting: the same measure for `O=C1CN2Cc3c(ccc(-c4ccncc4)c3Cl)N=C2N1`: 6.22 nM; for `O=C1CN2Cc3c(ccc(-c4ccccc4)c3Cl)N=C2N1`: 0.56 nM.
`Cc1ccc(-c2ccc3c(c2Cl)CN2CC(=O)NC2=N3)cc1`: the EC50 with HeLa [7] came to 0.3 nM.
Take `O=C1CN2Cc3c(ccc(-c4ccc(O)cc4)c3Cl)N=C2N1`: the EC50 in the series with HeLa [7] is 12.3 nM.
The same measure, in the same setting: the same measure for `O=C1CN2Cc3c(ccc(-c4ccsc4)c3Cl)N=C2N1`: 1.77 nM; for `O=C1CN2Cc3c(cc(Cl)c(-c4ccccc4)c3Cl)N=C2N1`: 1.14 nM.
As for `O=C1CN2Cc3c(ccc(Cl)c3Cl)N=C2N1` [ANAGRELIDE], the EC50 in series [9] is under 1 µg/mL; in series [14] it was 1200 nM; in series [15], 310 nM; in [16], 700 nM; in series [17], 390 nM; in series [18], 740 nM. In addition, the EC50 in series [19] was 270 nM; in series [20] it was 150 nM; in [21] it was 500 nM; in series [22] it was 80 nM; in [23], 310 nM; in [24], 400 nM. Besides, the EC50 is 80 nM in series [25]; 27 nM in series [8]; 5.12 nM with HeLa [26]; 4 nM with HeLa [27]; 6.67 nM in the series on HeLa [7]. Moreover, the half-life is 7 h in series [10] and 19 h in [11]. The inhibition in vivo at 4 mg/kg in series [12] was 47%. This compound showed an inhibition in vivo at 1 mg/kg in series [13] of 24%. Also, the median effective dose (ED50) in the series with Oryctolagus cuniculus amounted to 2.5 mg/kg.
As for `O=C1CCc2cc(OCCCCc3nnnn3C3CCCCC3)ccc2N1` [CILOSTAZOL], at Phosphodiesterase 3, the IC50 turned out to be 200 nM.
On to `C[C@]12CC[C@@H]3c4ccc(O)cc4CC[C@H]3[C@@H]1CC[C@@H]2O` [ESTRADIOL], for which the EC50 with HeLa [7] is 0.7 nM.
Turning to `C[C@@H]1C(=O)NC2=Nc3cccc(Cl)c3CN21` [QUAZINONE], the half-inhibitory concentration (IC50) at Phosphodiesterase 3 worked out at 580 nM.
As for `COc1cc(-c2ccc(=O)[nH]n2)ccc1OC(F)F` [ZARDAVERINE], the concentration for a half-maximal effect (EC50) in series [28] was 56.8 nM.

The values are drawn from ChEMBL document CHEMBL5252654 (ACS Med Chem Lett, 2023).
